In article PMC5761851, “Application of a phenotypic drug discovery strategy to identify biological and chemical starting points for inhibition of TSLP production in lung epithelial cells” (PLoS ONE, 2018) one finds remaining activity data, which are given here for 5 molecules.

Experiment in all cases: kinase selectivity panel
Common to all, as to format: biochemical

In experiment [1] the target is T1, TBK1 (Homo sapiens, UniProt Q9UHD2).
T1 construct: purchased Eurofins Pharma Discovery Services (KinaseProfiler; Cerep BioPrint panel)
T1 sequence (Q9UHD2 1-729): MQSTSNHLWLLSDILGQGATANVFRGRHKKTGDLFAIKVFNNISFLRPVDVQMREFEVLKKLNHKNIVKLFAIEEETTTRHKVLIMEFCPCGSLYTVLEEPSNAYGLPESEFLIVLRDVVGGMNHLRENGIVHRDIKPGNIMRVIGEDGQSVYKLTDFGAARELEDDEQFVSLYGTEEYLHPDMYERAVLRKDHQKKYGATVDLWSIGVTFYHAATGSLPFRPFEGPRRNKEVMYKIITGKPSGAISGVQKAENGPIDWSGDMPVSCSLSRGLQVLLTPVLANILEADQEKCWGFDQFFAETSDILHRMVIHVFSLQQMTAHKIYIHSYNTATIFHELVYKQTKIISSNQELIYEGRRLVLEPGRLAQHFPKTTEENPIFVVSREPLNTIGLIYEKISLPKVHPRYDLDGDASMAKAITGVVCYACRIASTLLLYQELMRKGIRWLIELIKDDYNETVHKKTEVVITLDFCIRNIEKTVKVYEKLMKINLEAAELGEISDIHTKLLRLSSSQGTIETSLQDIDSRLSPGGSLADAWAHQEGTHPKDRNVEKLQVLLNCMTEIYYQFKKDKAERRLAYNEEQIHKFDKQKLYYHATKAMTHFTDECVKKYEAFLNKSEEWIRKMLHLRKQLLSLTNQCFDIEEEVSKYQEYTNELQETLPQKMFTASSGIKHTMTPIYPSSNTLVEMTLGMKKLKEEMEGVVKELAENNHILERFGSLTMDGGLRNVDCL
The settings on record: read-out: percentage of control activity (POC), TBK1. In short, it runs like this: (§1)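 First, 125 representative kinases were exposed to 10 μM compound in duplicate; next, selected activities were titrated over 9 concentrations in duplicate, and IC50 values were calculated.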

Experiment [2] addresses T2, EphA2 (Homo sapiens, UniProt P29317).
T2 construct: purchased Eurofins Pharma Discovery Services (KinaseProfiler; Cerep BioPrint panel)
The conditions noted are these: read-out: percentage of control activity (POC), EphA2. In short, it runs like this:
as §1

In experiment [3] the target is T3, PDK1 (Homo sapiens, UniProt O15530).
T3 construct: purchased Eurofins Pharma Discovery Services (KinaseProfiler; Cerep BioPrint panel)
T3 sequence (O15530 1-556): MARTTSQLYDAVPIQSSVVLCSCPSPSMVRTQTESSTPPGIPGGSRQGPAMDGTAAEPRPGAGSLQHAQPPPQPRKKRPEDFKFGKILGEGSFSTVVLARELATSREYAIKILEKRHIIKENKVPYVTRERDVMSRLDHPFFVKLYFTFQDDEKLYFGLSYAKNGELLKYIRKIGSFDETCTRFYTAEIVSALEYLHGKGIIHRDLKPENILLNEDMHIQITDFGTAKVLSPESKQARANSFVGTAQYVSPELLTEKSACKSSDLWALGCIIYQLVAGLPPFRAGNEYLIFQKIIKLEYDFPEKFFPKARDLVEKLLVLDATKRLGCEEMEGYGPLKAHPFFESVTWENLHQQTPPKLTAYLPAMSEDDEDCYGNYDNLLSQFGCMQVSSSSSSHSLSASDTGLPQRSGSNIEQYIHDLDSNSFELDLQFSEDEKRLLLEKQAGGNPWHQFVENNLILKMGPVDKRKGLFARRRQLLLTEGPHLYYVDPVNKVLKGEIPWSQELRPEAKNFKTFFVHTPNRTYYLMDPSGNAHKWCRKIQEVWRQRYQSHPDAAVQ
The conditions noted are these: read-out: percentage of control activity (POC), PDK1. Put shortly:
as §1

Experiment [4] deals with T4, CSK (Homo sapiens, UniProt P41240).
T4 construct: purchased Eurofins Pharma Discovery Services (KinaseProfiler; Cerep BioPrint panel)
T4 sequence (P41240 whole entry): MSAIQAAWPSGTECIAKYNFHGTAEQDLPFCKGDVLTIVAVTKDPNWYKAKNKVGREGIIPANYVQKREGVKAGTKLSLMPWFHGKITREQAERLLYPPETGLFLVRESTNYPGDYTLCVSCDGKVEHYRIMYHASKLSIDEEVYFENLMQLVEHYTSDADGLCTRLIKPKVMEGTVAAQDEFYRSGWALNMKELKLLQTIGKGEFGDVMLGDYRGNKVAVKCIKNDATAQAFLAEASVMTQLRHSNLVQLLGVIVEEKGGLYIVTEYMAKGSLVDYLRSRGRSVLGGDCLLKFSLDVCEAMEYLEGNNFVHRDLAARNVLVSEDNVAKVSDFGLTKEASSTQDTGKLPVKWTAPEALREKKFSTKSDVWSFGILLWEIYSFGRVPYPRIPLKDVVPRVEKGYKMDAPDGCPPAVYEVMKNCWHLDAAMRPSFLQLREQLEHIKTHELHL
The conditions noted are these: read-out: percentage of control activity (POC), CSK. Put shortly: as §1

The target of experiment [5] is T5, EphA5 (Homo sapiens, UniProt P54756).
T5 construct: purchased Eurofins Pharma Discovery Services (KinaseProfiler; Cerep BioPrint panel)
T5 sequence (P54756 25-1037): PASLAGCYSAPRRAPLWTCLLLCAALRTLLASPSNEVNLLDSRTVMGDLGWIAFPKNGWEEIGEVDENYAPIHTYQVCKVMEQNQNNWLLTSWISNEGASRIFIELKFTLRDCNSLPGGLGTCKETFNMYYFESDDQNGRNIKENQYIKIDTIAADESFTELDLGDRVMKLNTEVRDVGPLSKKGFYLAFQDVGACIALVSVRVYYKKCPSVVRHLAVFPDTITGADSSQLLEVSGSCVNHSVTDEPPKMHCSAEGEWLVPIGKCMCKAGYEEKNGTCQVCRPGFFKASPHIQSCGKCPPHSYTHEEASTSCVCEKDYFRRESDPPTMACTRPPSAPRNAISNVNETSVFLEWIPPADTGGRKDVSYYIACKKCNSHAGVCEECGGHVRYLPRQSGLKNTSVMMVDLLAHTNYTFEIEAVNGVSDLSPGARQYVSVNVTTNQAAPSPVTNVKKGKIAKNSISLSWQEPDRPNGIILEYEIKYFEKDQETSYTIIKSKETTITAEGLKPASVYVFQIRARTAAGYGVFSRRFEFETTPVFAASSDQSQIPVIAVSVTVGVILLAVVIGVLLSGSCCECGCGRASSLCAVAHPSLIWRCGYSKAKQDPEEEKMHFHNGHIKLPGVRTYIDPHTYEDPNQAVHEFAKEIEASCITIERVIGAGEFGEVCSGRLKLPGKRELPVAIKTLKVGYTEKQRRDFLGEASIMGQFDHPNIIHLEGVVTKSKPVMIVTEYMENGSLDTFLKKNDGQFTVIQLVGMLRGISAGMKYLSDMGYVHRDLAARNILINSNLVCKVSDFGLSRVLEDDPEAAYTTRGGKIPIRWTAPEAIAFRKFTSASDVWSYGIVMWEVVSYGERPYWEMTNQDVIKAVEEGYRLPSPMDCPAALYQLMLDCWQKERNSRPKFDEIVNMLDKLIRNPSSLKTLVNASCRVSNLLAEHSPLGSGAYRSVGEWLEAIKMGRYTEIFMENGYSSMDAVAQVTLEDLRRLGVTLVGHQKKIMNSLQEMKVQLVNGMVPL
The settings on record: read-out: percentage of control activity (POC), EphA5. Put shortly:
as §1

T2 sequence (P29317 24-976): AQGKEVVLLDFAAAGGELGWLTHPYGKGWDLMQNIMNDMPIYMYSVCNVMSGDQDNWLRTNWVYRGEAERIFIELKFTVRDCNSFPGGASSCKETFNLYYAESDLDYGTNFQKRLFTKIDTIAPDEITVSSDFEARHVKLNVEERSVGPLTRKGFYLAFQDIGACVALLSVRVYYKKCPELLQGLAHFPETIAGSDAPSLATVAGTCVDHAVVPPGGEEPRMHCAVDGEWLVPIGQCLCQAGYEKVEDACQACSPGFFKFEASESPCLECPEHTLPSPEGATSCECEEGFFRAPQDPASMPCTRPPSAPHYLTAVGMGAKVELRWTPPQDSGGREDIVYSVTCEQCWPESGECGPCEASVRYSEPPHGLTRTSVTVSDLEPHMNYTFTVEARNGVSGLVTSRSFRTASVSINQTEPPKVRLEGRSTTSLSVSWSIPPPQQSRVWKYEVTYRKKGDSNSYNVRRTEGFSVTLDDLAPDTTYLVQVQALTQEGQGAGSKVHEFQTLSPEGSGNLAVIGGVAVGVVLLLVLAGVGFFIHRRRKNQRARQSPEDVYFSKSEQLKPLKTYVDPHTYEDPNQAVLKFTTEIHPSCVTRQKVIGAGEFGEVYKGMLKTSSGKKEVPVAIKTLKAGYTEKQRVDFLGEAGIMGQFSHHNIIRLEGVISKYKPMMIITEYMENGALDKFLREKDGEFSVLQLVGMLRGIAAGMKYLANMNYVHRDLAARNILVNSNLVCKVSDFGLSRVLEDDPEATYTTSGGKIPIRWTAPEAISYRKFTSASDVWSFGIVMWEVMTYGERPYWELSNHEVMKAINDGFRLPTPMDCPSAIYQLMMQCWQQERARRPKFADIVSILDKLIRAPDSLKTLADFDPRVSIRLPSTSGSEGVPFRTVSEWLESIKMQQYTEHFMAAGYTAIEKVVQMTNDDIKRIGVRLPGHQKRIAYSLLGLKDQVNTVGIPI

Consider `Cn1cc(-c2cccc(-c3nc(C(=O)NC4C5CC6CC4CC(O)(C6)C5)c(N)nc3N)c2)cn1` (stereo not shown) [compound 4], for which the remaining activity at 10 µM in experiment [1] came out at 90%; in experiment [2], 97%; in experiment [3] it was 118%; in experiment [4] it was 94%; in experiment [5], 93%.

Regarding `COc1c(NC(=O)c2ccc(C)c(-c3nnc4c(NCC(C)(C)C)nccn34)c2)cc(C(C)(C)C)cc1NS(C)(=O)=O` [compound 7, reference compound], the remaining activity at 10 µM in experiment [1] was 103%; in experiment [2], 63%; in experiment [3], 121%; in experiment [4] it was 88%; in experiment [5], 65%.

With `Cc1ccc(C(=O)NCC2CC2)cc1-c1ccc2c(c1)NC(=O)C21CCCC1` [compound 3], the remaining activity at 10 µM in experiment [1] was 92%; in experiment [2], 100%; in experiment [3], 98%; in experiment [4], 107%; in experiment [5] it was 99%.

Regarding `CC(C)(C)N1CCC(c2cc(-c3ccc(F)cc3Cl)c3cc[n+]([O-])c(-c4c(Cl)cccc4Cl)c3n2)CC1` [compound 2], the remaining activity at 10 µM in experiment [1] is 108%; in experiment [2], 103%; in experiment [3], 121%; in experiment [4], 95%; in experiment [5], 95%.

Regarding `CS(=O)(=O)N1CCN(c2ccc(Nc3ncc(C(N)=O)c(NC4CC4)n3)cc2)CC1` [compound 5], the remaining activity at 10 µM in experiment [1] was -1%; in experiment [2] it was 57%; in experiment [3], 7%; in experiment [4], 74%; in experiment [5], 56%.
